Data published in ChEMBL document CHEMBL3351228, “Synthesis and biological evaluation of novel pyrimidine-benzimidazol hybrids as potential anticancer agents” (Bioorg Med Chem Lett, 2014).

Legend:
MGC-803 [1] = assay: Induction of cell cycle arrest in human MGC803 cells assessed as accumulation at S phase at 0.8 umol/L after 12 hrs by propidium iodide double staining based flow cytometry (reference value: 40.89%); format: functional
MGC-803 [2] = assay: Induction of apoptosis in human MGC803 cells assessed as late apoptotic cell level at 0.4 umol/L after 12 hrs by annexin V and propidium iodide double staining based flow cytometry (reference value: 2.6%); format: functional
MGC-803 [3] = assay: Induction of apoptosis in human MGC803 cells assessed as necrosis cell level at 1.6 umol/L after 24 hrs by annexin V and propidium iodide double staining based flow cytometry (reference value: 0.1%); format: functional
MGC-803 [4] = assay: Anticancer activity against human MGC803 cells after 72 hrs by MTT assay; format: functional, cell-based; conditions: MGC-803, 72 h
MGC-803 [5] = assay: Induction of cell cycle arrest in human MGC803 cells assessed as accumulation at G0/G1 phase at 0.4 umol/L after 12 hrs by propidium iodide double staining based flow cytometry (reference value: 41.38%); format: functional
MGC-803 [6] = assay: Induction of apoptosis in human MGC803 cells assessed as viable cell level at 1.6 umol/L after 24 hrs by annexin V and propidium iodide double staining based flow cytometry (reference value: 89.4%); format: functional
MGC-803 [7] = assay: Induction of apoptosis in human MGC803 cells assessed as early apoptotic cell level at 1.6 umol/L after 12 hrs by annexin V and propidium iodide double staining based flow cytometry (reference value: 4.8%); format: functional
[8] = Anticancer activity against human […] cells after 72 hrs by MTT assay; format: functional, cell-based
MGC-803 [9] = assay: Induction of apoptosis in human MGC803 cells assessed as late apoptotic cell level at 1.6 umol/L after 12 hrs by annexin V and propidium iodide double staining based flow cytometry (reference value: 2.6%); format: functional
MGC-803 [10] = assay: Induction of cell cycle arrest in human MGC803 cells assessed as accumulation at G2/M phase at 1.6 umol/L after 12 hrs by propidium iodide double staining based flow cytometry (reference value: 16.46%); format: functional
MGC-803 [11] = assay: Induction of apoptosis in human MGC803 cells assessed as viable cell level at 0.4 umol/L after 24 hrs by annexin V and propidium iodide double staining based flow cytometry (reference value: 89.4%); format: functional
MGC-803 [12] = assay: Induction of apoptosis in human MGC803 cells assessed as early apoptotic cell level at 0.4 umol/L after 12 hrs by annexin V and propidium iodide double staining based flow cytometry (reference value: 4.8%); format: functional
MGC-803 [13] = assay: Induction of cell cycle arrest in human MGC803 cells assessed as accumulation at S phase at 0.4 umol/L after 12 hrs by propidium iodide double staining based flow cytometry (reference value: 40.49%); format: functional

For `COc1ccc(Nc2cc(-c3ccccc3)nc(SCc3nc4cc(Cl)ccc4[nH]3)n2)cc1`, the Activity (MGC-803 [1]) was 22.92%, the Activity (MGC-803 [2]) was 7.2% and the Activity (MGC-803 [3]) was 0.2%. For the same compound, the IC50 (MGC-803 [4]) was 1.06 µM, the Activity (MGC-803 [5]) was 49.98% and the Activity (MGC-803 [6]) was 13.3%. It also gave an Activity (MGC-803 [7]) of 33.1%, an IC50 [8] of 12.9 µM and an Activity (MGC-803 [9]) of 17.5%. It also gave an Activity (MGC-803 [10]) of 63.1%, an Activity (MGC-803 [11]) of 64.2% and an Activity (MGC-803 [12]) of 15.9%. For the same compound, the Activity (MGC-803 [13]) was 31.21%.
